The record followed here is patent publication US12108761B2, “Mesostigmata mite control agent” (MEIJI SEIKA PHARMA CO., LTD., priority 2017, dated 2024).

Holding throughout (assay type): in vivo
Experiment [1] deals with red mites (Dermanyssus gallinae). As to the kind of experiment: Test Example 4: controlling effect on red mites, Pasteur pipette treated with acetone solution. The note with it: 24 hours after treatment, unfed adult red mites; for pest or weed control at 5000 ppm: Dermanyssus gallinae, read-out: Ratio of dead and affected mites; for Ratio of dead and affected mites: 5000 ppm. The text has this:
The tip of a Pasteur pipette was sealed with Parafilm, and an acetone solution (liquid agent) of each of the samples shown in Table 5 below diluted to a predetermined concentration was poured into the pipette through an upper portion thereof. One minute later, the Parafilm at the tip was detached, and the liquid agent was discharged. After the pipette was air dried, absorbent cotton was inserted to an upper end of the pipette, and 20 unfed adult red mites (Dermanyssus gallinae) were released into the pipette. After the tip was sealed with Hemato-Seal, the pipette was stored in the dark in an incubator at a temperature of 25 to 28° C. and a humidity of 40 to 60%. […] Then, the ratio (%) of dead and affected mites was calculated according to the following formula. Acequinocyl and fluacrypyrim were used as control drugs. The ratio (%) of dead and affected mites={(the number of dead mites+the number of affected mites)/(the number of survived mites+the number of affected mites+the number of dead mites)}×100

Experiment [2] shares this test system. Kind of experiment: Test Example 1: controlling effect on red mites, Pasteur pipette treated with acetone solution. The conditions noted are these: unfed adult red mites. From the text: The tip of a Pasteur pipette was sealed with Parafilm, and an acetone solution (liquid agent) of each of the samples shown in Table 2 below diluted to a predetermined concentration was poured into the pipette through an upper portion thereof. One minute later, the Parafilm at the tip was detached, and the liquid agent was discharged. After the pipette was air dried, absorbent cotton was inserted to an upper end of the pipette, and 20 unfed adult red mites (Dermanyssus gallinae) were released into the pipette. After the tip was sealed with Hemato-Seal, the pipette was stored in the dark in an incubator at a temperature of 27 to 28° C. and a humidity of 50 to 60%. After 24, 48, and 72 hours had passed since the treatment, the mites were observed under a stereomicroscope to determine whether the mites were dead or alive and whether the mites were affected. Then, the ratio (%) of dead and affected mites was calculated according to the following formula. Spinosad, trichlorfon, and permethrin were used as control drugs. The ratio (%) of dead and affected mites={(the number of dead mites+the number of affected mites)/(the number of survived mites+the number of affected mites+the number of dead mites)}×100

Experiment [3] concerns northern fowl mites (Ornithonyssus sylviarum). As to the kind of experiment: Test Example 3: controlling effect on northern fowl mites, Pasteur pipette treated with acetone solution. The conditions noted are these: fed adult northern fowl mites. The text has this: The tip of a Pasteur pipette was sealed with Parafilm, and an acetone solution (liquid agent) of each of the samples shown in Table 4 below diluted to a predetermined concentration was poured into the pipette through an upper portion thereof. One minute later, the Parafilm at the tip was detached, and the liquid agent was discharged. After the pipette was air dried, absorbent cotton was inserted to an upper end of the pipette, and 10 fed adult northern fowl mites (Ornithonyssus sylviarum) were released into the pipette. After the tip was sealed with Hemato-Seal, the pipette was stored in the dark in an incubator at 25° C. and at a humidity of 80%. After 2 and 24 hours had passed since the treatment, the mites were observed under a stereomicroscope to determine whether the mites were dead or alive and whether the mites were affected. Then, the ratio (%) of dead and affected mites was calculated. The ratio (%) of dead and affected mites={(the number of dead mites+the number of affected mites)/(the number of survived mites+the number of affected mites+the number of dead mites)}×100

On to `C[C@@]1(c2ccc(Oc3ccccc3)cc2)OC(=O)N(Nc2ccccc2)C1=O` (racemic) [Famoxadone], for which the pest or weed control at 5000 ppm in experiment [1] worked out at 81.7%.

Consider `CCCCCCCCCCCCC1=C(OC(C)=O)C(=O)c2ccccc2C1=O` [Acequinocyl], for which the pest or weed control at 5000 ppm in experiment [1] was determined as 93.3%.

Regarding `Cc1c(Br)c2ccc(F)cc2n1S(=O)(=O)c1ncn(S(=O)(=O)N(C)C)n1` [Amisulbrom], the “Ratio of dead and affected mites” value in experiment [1] is given as 92.9%.

As for `CO/C=C(/C(=O)OC)c1ccccc1Oc1cc(Oc2ccccc2C#N)ncn1` [Azoxystrobin], in experiment [1], the “Ratio of dead and affected mites” value was determined as 55.2%.

As for `O=C(Nc1ccccc1-c1ccc(Cl)cc1)c1cccnc1Cl` [Boscalid], in experiment [1], the pest or weed control at 5000 ppm amounted to 44.5%.

Turning to `CC1=C(C(=O)Nc2ccccc2)SCCO1` [Carboxin], in experiment [1], the pest or weed control at 5000 ppm turned out to be 42.6%.

Take `CC(=O)Oc1c(C)c(C)nc2c(F)cc(C(C)(C)C)cc12` [Compound A]: the “Ratio of dead and affected mites” value in experiment [2] (200 ppm, 24 hours later) worked out at 7%; in experiment [2] (200 ppm, 48 hours later) it was 81%; in experiment [2] (200 ppm, 72 hours later) it was 98%; in experiment [2] (1000 ppm, 24 hours later), 100%; in experiment [2] (1000 ppm, 48 hours later), 100%; in experiment [2] (1000 ppm, 72 hours later), 100%. Besides, the “Ratio of dead and affected mites” value in experiment [3] (50 ppm, 2 hours later) turned out to be 13%; in experiment [3] (50 ppm, 24 hours later), 92%; in experiment [3] (200 ppm, 2 hours later) it was 53%; in experiment [3] (200 ppm, 24 hours later), 100%; in experiment [3] (1000 ppm, 2 hours later), 100%; in experiment [3] (1000 ppm, 24 hours later), 100%.

Regarding `CC(=O)Oc1c(C)c(C)nc2c(C)cc(C(C)(C)C)cc12` [Compound B], the “Ratio of dead and affected mites” value in experiment [2] (100 ppm, 24 hours later) amounted to 100%; in experiment [2] (100 ppm, 48 hours later) it was 100%.

Consider `CC(=O)Oc1c(C)c(C)nc2c(C)cc(Br)cc12` [Compound C], for which the “Ratio of dead and affected mites” value in experiment [2] (100 ppm, 24 hours later) came out at 91%; in experiment [2] (100 ppm, 48 hours later), 95%.

Take `CC(=O)Oc1c(C)c(C)nc2c(C)cc(F)cc12` [Compound D]: the “Ratio of dead and affected mites” value in experiment [2] (100 ppm, 24 hours later) was found to be 100%; in experiment [2] (100 ppm, 48 hours later) it was 100%.

Take `COC(=O)Oc1c(C)c(C)nc2ccc(F)cc12` [Compound F]: in experiment [2] (50 ppm, 24 hours later), the “Ratio of dead and affected mites” value stood at 55%.

For the compound `Cc1ccc(-c2c(Cl)nc(C#N)n2S(=O)(=O)N(C)C)cc1` [Cyazofamid], the pest or weed control at 5000 ppm in experiment [1] amounted to 23.2%.

For the compound `CCC(Nc1ncnc(C)c1Cl)c1ccc(OC(F)F)cc1` (stereo not shown) [Diflumetorim], the pest or weed control at 5000 ppm in experiment [1] is 100%.

With `Cc1nn(C)c(Oc2ccccc2)c1C=NOCc1ccc(C(=O)OC(C)(C)C)cc1` [Fenpyroximate], in experiment [1], the pest or weed control at 5000 ppm amounted to 100%.

Take `C/C(=N/Nc1nc(C)cc(C)n1)c1ccccc1C` [Ferimzone]: the pest or weed control at 5000 ppm in experiment [1] came out at 53.5%.

Regarding `CO/C=C(/C(=O)OC)c1ccccc1COc1cc(C(F)(F)F)nc(OC(C)C)n1` [Fluacrypyrim], in experiment [1], the pest or weed control at 5000 ppm worked out at 19.3%.

Take `O=[N+]([O-])c1cc(C(F)(F)F)c(Cl)c([N+](=O)[O-])c1Nc1ncc(C(F)(F)F)cc1Cl` [Fluazinam]: the pest or weed control at 5000 ppm in experiment [1] was found to be 82.5%.

With `CC1(C)C(C=C(Cl)c2ccc(Cl)cc2)C1C(=O)OC(C#N)c1ccc(F)c(Oc2ccccc2)c1` (stereo not shown) [Flumethrin], the “Ratio of dead and affected mites” value in experiment [3] (5 ppm, 24 hours later) was determined as 67%; in experiment [3] (20 ppm, 24 hours later), 83%; in experiment [3] (50 ppm, 2 hours later) it was 100%; in experiment [3] (50 ppm, 24 hours later), 100%.

With `O=C(NCCc1ncc(C(F)(F)F)cc1Cl)c1ccccc1C(F)(F)F` [Fluopyram], the pest or weed control at 5000 ppm in experiment [1] was found to be 50.5%.

As to `CO/N=C(/C1=NOCCO1)c1ccccc1Oc1ncnc(Oc2ccccc2Cl)c1F` [Fluoxastrobin], the pest or weed control at 5000 ppm in experiment [1] came out at 66.5%.

In the case of `CC(C)Oc1cccc(NC(=O)c2ccccc2C(F)(F)F)c1` [Flutolanil], the pest or weed control at 5000 ppm in experiment [1] worked out at 39.5%.

For `Cn1cc(C(=O)Nc2ccccc2-c2cc(F)c(F)c(F)c2)c(C(F)F)n1` [Fluxapyroxad], in experiment [1], the “Ratio of dead and affected mites” value was 61.3%.

In the case of `Cc1nn(C)c(Cl)c1C(=O)Nc1cccc2c1C(C)OC2(C)C` (stereo not shown) [Furametpyr], in experiment [1], the “Ratio of dead and affected mites” value was found to be 56.1%.

With `Cc1cc(OC(C)C)ccc1C(=O)C(C)(C)NC(=O)c1sccc1C` [Isofetamid], the “Ratio of dead and affected mites” value in experiment [1] is given as 17.4%.

As to `CO/N=C(/C(=O)OC)c1ccccc1COc1ccccc1C` [Kresoxim-Methyl], the pest or weed control at 5000 ppm in experiment [1] worked out at 52.8%.

On to `Cc1ccccc1C(=O)Nc1cccc(OC(C)C)c1` [Mepronil], for which the pest or weed control at 5000 ppm in experiment [1] came to 52.1%.

For `CNC(=O)/C(=N/OC)c1ccccc1Oc1ccccc1` [Metominostrobin], in experiment [1], the pest or weed control at 5000 ppm was 50%.

Take `CNC(=O)/C(=N/OC)c1ccccc1CO/N=C(C)/C(=N/OC)C(/C)=N/OC` [Orysastrobin]: the “Ratio of dead and affected mites” value in experiment [1] stood at 82.6%.

Regarding `Cc1nn(C)c(F)c1C(=O)Nc1ccccc1C(C)CC(C)C` (stereo not shown) [Penflufen], the “Ratio of dead and affected mites” value in experiment [1] amounted to 20.5%.

As to `CC(C)CC(C)c1sccc1NC(=O)c1cn(C)nc1C(F)(F)F` (stereo not shown) [Penthiopyrad], the pest or weed control at 5000 ppm in experiment [1] turned out to be 35%.

As to `CC1(C)C(C=C(Cl)Cl)C1C(=O)OCc1cccc(Oc2ccccc2)c1` (stereo not shown) [Permethrin], the “Ratio of dead and affected mites” value in experiment [2] (100 ppm, 48 hours later) was found to be 6%.

Turning to `CO/C=C(/C(=O)OC)c1ccccc1COc1cccc(C(F)(F)F)n1` [Picoxystrobin], in experiment [1], the “Ratio of dead and affected mites” value is 80.5%.

In the case of `COC(=O)N(OC)c1ccccc1COc1ccn(-c2ccc(Cl)cc2)n1` [Pyraclostrobin], in experiment [1], the pest or weed control at 5000 ppm is 77.3%.

Regarding `COC(=O)NCc1cc(/C(C)=N/OCc2cccc(C)n2)ccc1Cl` [Pyribencarb], the pest or weed control at 5000 ppm in experiment [1] stood at 31.1%.

On to `Cc1nc(C(F)(F)F)c(C(=O)Nc2c(Br)cc(OC(F)(F)F)cc2Br)s1` [Thifluzamide], for which, in experiment [1], the pest or weed control at 5000 ppm is 63.2%.

Regarding `COP(=O)(OC)C(O)C(Cl)(Cl)Cl` (stereo not shown) [Trichlorfon], in experiment [2] (5000 ppm, 48 hours later), the “Ratio of dead and affected mites” value was 84%.

On to `CON=C(C(=O)OC)c1ccccc1CON=C(C)c1cccc(C(F)(F)F)c1` [Trifloxystrobin], for which, in experiment [1], the pest or weed control at 5000 ppm came to 75.7%.

Turning to Spinosad, the “Ratio of dead and affected mites” value in experiment [2] (200 ppm, 24 hours later) is listed as 33%; in experiment [2] (200 ppm, 48 hours later) it was 69%; in experiment [2] (200 ppm, 72 hours later), 72%; in experiment [2] (1000 ppm, 24 hours later) it was 32%; in experiment [2] (1000 ppm, 48 hours later), 82%; in experiment [2] (1000 ppm, 72 hours later) it was 95%. In addition, the “Ratio of dead and affected mites” value in experiment [3] (50 ppm, 2 hours later) is 18%; in experiment [3] (50 ppm, 24 hours later) it was 80%; in experiment [3] (200 ppm, 2 hours later), 3%; in experiment [3] (200 ppm, 24 hours later) it was 94%.
